Results from patent US20130053430A1, “MODULATION OF CETP EXPRESSION” (Isis Pharmaceuticals, Inc., priority 2010, published 2013).
e = 2'-O-(2-methoxyethyl) (MOE); d = 2'-deoxy (DNA)

What was measured:
[1] = Plasma cholesterol and triglyceride levels, dose response (Example 9); type: in vivo, mice
Protocol: (§1) Another group received subcutaneous injections of control oligonucleotide ISIS 141923 at a dose of 50 mg/kg/week for 6 weeks. One group of mice received subcutaneous injections of PBS for 6 weeks. The PBS-injected group served as the control group to which treatment groups were compared.
G. and Dyer, W. J. Can. J. Biochem. Physiol. 37: 911-917, 1959) and measured with an Olympus clinical analyzer (Hitachi Olympus AU400e, Melville, N.Y.). HDL and LDL cholesterol were individually measured by HPLC. Triglyceride levels were measured with the use of a commercially available triglyceride kit (DCL Triglyceride Reagent; Diagnostic Chemicals Ltd.). The results are presented in Tables 47-51 and are expressed in mg/dL.

CETP mRNA [2] = experiment: Dose response, liver CETP mRNA in huCETP transgenic mice on Western diet (Example 9); type: in vivo, human; conditions: s.c. 6 weeks
Protocol: Male transgenic mice were maintained on a 12-hour light/dark cycle and were fed ad libitum the Western diet (TD88137; 42% cal from fat, 0.2% cholesterol; Harlan Laboratories, Indianapolis, Ind.). Animals were acclimated for at least 7 days in the research facility before initiation of the experiment and were maintained on this diet throughout the study period. Antisense oligonucleotides (ASOs) were prepared in buffered saline (PBS) and sterilized by filtering through a 0.2 micron filter. Oligonucleotides were dissolved in 0.9% PBS for injection.
as §1
Twenty four hours after the final dose, the animals were sacrificed and liver tissue was isolated. Liver RNA was isolated for real-time PCR analysis of CETP. The primer probe sets hCETP and hCETP2_LTS00182 were individually used to measure CETP levels. As presented in Table 43, treatment with ISIS 349517 reduced CETP mRNA expression in a dose-dependent manner. Both primer probe sets produced similar results. The RNA expression levels were normalized to murine Cyclophilin. The results are expressed as percent inhibition of CETP mRNA, relative to the PBS control.

[3] = Plasma glucose, dose response (Example 9); type: in vivo, mice
Protocol: as §1
(§2) Plasma glucose values were determined using a Beckman Glucose Analyzer II (Beckman Coulter) by a glucose oxidase method (Lott, J. A. et al., Clin. Chem. 21: 1754-1760, 1975).

human CETP mRNA = experiment: Antisense inhibition of human CETP mRNA in SW872 liposarcoma cells (Example 1); type: cell-based; conditions: 150 nM antisense oligonucleotide, lipofectin, ~24 hours, relative to untreated control cells
How it was run: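 SW872 cells transfected (lipofectin) with 150 nM 5-10-5 MOE gapmer (phosphorothioate, 5-methylcytosine). After about 24 h, CETP mRNA measured by qRT-PCR, normalized to GAPDH; values are % inhibition versus untreated cells.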

CETP mRNA [4] = experiment: Liver CETP mRNA in huApoB/huCETP/mLDLr mouse model for cardiovascular disease (Example 7); type: in vivo, human; conditions: huApoB+/−huCETP+/−mLDLr+/− mice (Groups B-E); ASO 25 mg/kg s.c. twice per week, nicotinic acid 2 g/kg/day s.c. + 1% in diet, 6 weeks; relative to PBS control (Group A)
Source text: The saline-injected group served as the control group to which oligonucleotide-treated groups were compared. […] This group served a negative control for the effects of the antisense oligonucleotides against CETP. The groups are further described in Table 27, and are designated letters A-F, by which they will be referred from henceforth.

[5] = Plasma glucose (Example 6); type: in vivo, mice; conditions: 50 mg/kg s.c. twice per week
Protocol: The normal chow-fed mice were divided into three treatment groups. The cholesterol-enriched chow-fed mice were divided into three treatment groups. […] One chow-fed group and one cholesterol-enriched chow-fed group received subcutaneous injections of saline twice weekly for 6 weeks. The saline-injected groups served as the control groups to which the corresponding oligonucleotide-treated groups were compared.
as §2

ISIS 141923: CCTTCCCTGAAGGTTCCTCC, 5-10-5 MOE gapmer, a control oligonucleotide which has no known murine target (sugars from the 5' end e5 d10 e5, backbone and methylation of C not given here) [reference compound]
HDL cholesterol levels ([1]; 50 mg/kg/wk, Week 0): 87 mg/dL
LDL cholesterol levels ([1]; 50 mg/kg/wk, Week 0): 54 mg/dL
Total cholesterol levels ([1]; 50 mg/kg/wk, Week 0): 153 mg/dL
Triglyceride levels ([1]; 50 mg/kg/wk, Week 0): 49 mg/dL
% change in HDL levels compared to total cholesterol ([1]; 50 mg/kg/wk, Week 3): −17%
HDL cholesterol levels ([1]; 50 mg/kg/wk, Week 3): 115 mg/dL
LDL cholesterol levels ([1]; 50 mg/kg/wk, Week 3): 42 mg/dL
Total cholesterol levels ([1]; 50 mg/kg/wk, Week 3): 164 mg/dL
Triglyceride levels ([1]; 50 mg/kg/wk, Week 3): 58 mg/dL
% change in HDL levels compared to total cholesterol ([1]; 50 mg/kg/wk, Week 6): −23%
HDL cholesterol levels ([1]; 50 mg/kg/wk, Week 6): 124 mg/dL
LDL cholesterol levels ([1]; 50 mg/kg/wk, Week 6): 47 mg/dL
Total cholesterol levels ([1]; 50 mg/kg/wk, Week 6): 180 mg/dL
Triglyceride levels ([1]; 50 mg/kg/wk, Week 6): 88 mg/dL
Percent inhibition of liver CETP mRNA expression, PPset hCETP (CETP mRNA [2]; Dose 50 mg/kg/wk): 0%
Percent inhibition of liver CETP mRNA expression, PPset hCETP2_LTS00182 (CETP mRNA [2]; Dose 50 mg/kg/wk): 0%
Glucose levels ([3]; 50 mg/kg/wk, Week 0): 311 mg/dL
Glucose levels ([3]; 50 mg/kg/wk, Week 3): 256 mg/dL
Glucose levels ([3]; 50 mg/kg/wk, Week 6): 305 mg/dL

ISIS 349511: 5-10-5 MOE gapmer CCCGACCTCCTTGGAGACTT (sugars from the 5' end e5 d10 e5, backbone and methylation of C not given here)
% inhibition (human CETP mRNA): 66%
Percent inhibition of liver CETP mRNA expression (CETP mRNA [4]): 70%
Glucose levels ([5]; Cholesterol chow, Week 0): 238 mg/dL
Glucose levels ([5]; Cholesterol chow, Week 3): 289 mg/dL
Glucose levels ([5]; Cholesterol chow, Week 6): 225 mg/dL
Glucose levels ([5]; Normal chow, Week 0): 239 mg/dL
Glucose levels ([5]; Normal chow, Week 3): 288 mg/dL
Glucose levels ([5]; Normal chow, Week 6): 206 mg/dL

ISIS 349517: 5-10-5 MOE gapmer CAGCACTTTAATGCCAGTGG (sugars from the 5' end e5 d10 e5, backbone and methylation of C not given here)
HDL cholesterol levels ([1]; 1.5 mg/kg/wk, Week 0): 80 mg/dL
LDL cholesterol levels ([1]; 1.5 mg/kg/wk, Week 0): 58 mg/dL
Total cholesterol levels ([1]; 1.5 mg/kg/wk, Week 0): 154 mg/dL
Triglyceride levels ([1]; 1.5 mg/kg/wk, Week 0): 63 mg/dL
% change in HDL levels compared to total cholesterol ([1]; 1.5 mg/kg/wk, Week 3): 12%
HDL cholesterol levels ([1]; 1.5 mg/kg/wk, Week 3): 117 mg/dL
LDL cholesterol levels ([1]; 1.5 mg/kg/wk, Week 3): 35 mg/dL
Total cholesterol levels ([1]; 1.5 mg/kg/wk, Week 3): 171 mg/dL
Triglyceride levels ([1]; 1.5 mg/kg/wk, Week 3): 50 mg/dL
% change in HDL levels compared to total cholesterol ([1]; 1.5 mg/kg/wk, Week 6): 24%
HDL cholesterol levels ([1]; 1.5 mg/kg/wk, Week 6): 132 mg/dL
LDL cholesterol levels ([1]; 1.5 mg/kg/wk, Week 6): 38 mg/dL
Total cholesterol levels ([1]; 1.5 mg/kg/wk, Week 6): 180 mg/dL
Triglyceride levels ([1]; 1.5 mg/kg/wk, Week 6): 91 mg/dL
HDL cholesterol levels ([1]; 5 mg/kg/wk, Week 0): 88 mg/dL
LDL cholesterol levels ([1]; 5 mg/kg/wk, Week 0): 62 mg/dL
Total cholesterol levels ([1]; 5 mg/kg/wk, Week 0): 164 mg/dL
Triglyceride levels ([1]; 5 mg/kg/wk, Week 0): 57 mg/dL
% change in HDL levels compared to total cholesterol ([1]; 5 mg/kg/wk, Week 3): 11%
HDL cholesterol levels ([1]; 5 mg/kg/wk, Week 3): 130 mg/dL
LDL cholesterol levels ([1]; 5 mg/kg/wk, Week 3): 31 mg/dL
Total cholesterol levels ([1]; 5 mg/kg/wk, Week 3): 172 mg/dL
Triglyceride levels ([1]; 5 mg/kg/wk, Week 3): 51 mg/dL
% change in HDL levels compared to total cholesterol ([1]; 5 mg/kg/wk, Week 6): 23%
HDL cholesterol levels ([1]; 5 mg/kg/wk, Week 6): 151 mg/dL
LDL cholesterol levels ([1]; 5 mg/kg/wk, Week 6): 36 mg/dL
Total cholesterol levels ([1]; 5 mg/kg/wk, Week 6): 202 mg/dL
Triglyceride levels ([1]; 5 mg/kg/wk, Week 6): 85 mg/dL
HDL cholesterol levels ([1]; 15 mg/kg/wk, Week 0): 86 mg/dL
LDL cholesterol levels ([1]; 15 mg/kg/wk, Week 0): 54 mg/dL
Total cholesterol levels ([1]; 15 mg/kg/wk, Week 0): 152 mg/dL
Triglyceride levels ([1]; 15 mg/kg/wk, Week 0): 47 mg/dL
% change in HDL levels compared to total cholesterol ([1]; 15 mg/kg/wk, Week 3): 26%
HDL cholesterol levels ([1]; 15 mg/kg/wk, Week 3): 141 mg/dL
LDL cholesterol levels ([1]; 15 mg/kg/wk, Week 3): 32 mg/dL
Total cholesterol levels ([1]; 15 mg/kg/wk, Week 3): 185 mg/dL
Triglyceride levels ([1]; 15 mg/kg/wk, Week 3): 48 mg/dL
% change in HDL levels compared to total cholesterol ([1]; 15 mg/kg/wk, Week 6): 42%
HDL cholesterol levels ([1]; 15 mg/kg/wk, Week 6): 164 mg/dL
LDL cholesterol levels ([1]; 15 mg/kg/wk, Week 6): 40 mg/dL
Total cholesterol levels ([1]; 15 mg/kg/wk, Week 6): 217 mg/dL
Triglyceride levels ([1]; 15 mg/kg/wk, Week 6): 85 mg/dL
HDL cholesterol levels ([1]; 50 mg/kg/wk, Week 0): 77 mg/dL
LDL cholesterol levels ([1]; 50 mg/kg/wk, Week 0): 59 mg/dL
Total cholesterol levels ([1]; 50 mg/kg/wk, Week 0): 145 mg/dL
Triglyceride levels ([1]; 50 mg/kg/wk, Week 0): 41 mg/dL
% change in HDL levels compared to total cholesterol ([1]; 50 mg/kg/wk, Week 3): 43%
HDL cholesterol levels ([1]; 50 mg/kg/wk, Week 3): 139 mg/dL
LDL cholesterol levels ([1]; 50 mg/kg/wk, Week 3): 33 mg/dL
Total cholesterol levels ([1]; 50 mg/kg/wk, Week 3): 184 mg/dL
Triglyceride levels ([1]; 50 mg/kg/wk, Week 3): 49 mg/dL
% change in HDL levels compared to total cholesterol ([1]; 50 mg/kg/wk, Week 6): 37%
HDL cholesterol levels ([1]; 50 mg/kg/wk, Week 6): 123 mg/dL
LDL cholesterol levels ([1]; 50 mg/kg/wk, Week 6): 38 mg/dL
Total cholesterol levels ([1]; 50 mg/kg/wk, Week 6): 170 mg/dL
Triglyceride levels ([1]; 50 mg/kg/wk, Week 6): 60 mg/dL
% inhibition (human CETP mRNA): 100%
Percent inhibition of liver CETP mRNA expression (CETP mRNA [4]): 86%
Percent inhibition of liver CETP mRNA expression, PPset hCETP (CETP mRNA [2]; Dose 1.5 mg/kg/wk): 59%
Percent inhibition of liver CETP mRNA expression, PPset hCETP2_LTS00182 (CETP mRNA [2]; Dose 1.5 mg/kg/wk): 59%
Percent inhibition of liver CETP mRNA expression, PPset hCETP (CETP mRNA [2]; Dose 5 mg/kg/wk): 87%
Percent inhibition of liver CETP mRNA expression, PPset hCETP2_LTS00182 (CETP mRNA [2]; Dose 5 mg/kg/wk): 87%
Percent inhibition of liver CETP mRNA expression, PPset hCETP (CETP mRNA [2]; Dose 15 mg/kg/wk): 91%
Percent inhibition of liver CETP mRNA expression, PPset hCETP2_LTS00182 (CETP mRNA [2]; Dose 15 mg/kg/wk): 95%
Percent inhibition of liver CETP mRNA expression, PPset hCETP (CETP mRNA [2]; Dose 50 mg/kg/wk): 92%
Percent inhibition of liver CETP mRNA expression, PPset hCETP2_LTS00182 (CETP mRNA [2]; Dose 50 mg/kg/wk): 96%
Glucose levels ([3]; 1.5 mg/kg/wk, Week 0): 375 mg/dL
Glucose levels ([3]; 1.5 mg/kg/wk, Week 3): 288 mg/dL
Glucose levels ([3]; 1.5 mg/kg/wk, Week 6): 348 mg/dL
Glucose levels ([3]; 5 mg/kg/wk, Week 0): 354 mg/dL
Glucose levels ([3]; 5 mg/kg/wk, Week 3): 287 mg/dL
Glucose levels ([3]; 5 mg/kg/wk, Week 6): 346 mg/dL
Glucose levels ([3]; 15 mg/kg/wk, Week 0): 339 mg/dL
Glucose levels ([3]; 15 mg/kg/wk, Week 3): 271 mg/dL
Glucose levels ([3]; 15 mg/kg/wk, Week 6): 329 mg/dL
Glucose levels ([3]; 50 mg/kg/wk, Week 0): 339 mg/dL
Glucose levels ([3]; 50 mg/kg/wk, Week 3): 269 mg/dL
Glucose levels ([3]; 50 mg/kg/wk, Week 6): 255 mg/dL
Glucose levels ([5]; Cholesterol chow, Week 0): 277 mg/dL
Glucose levels ([5]; Cholesterol chow, Week 3): 245 mg/dL
Glucose levels ([5]; Cholesterol chow, Week 6): 240 mg/dL
Glucose levels ([5]; Normal chow, Week 0): 263 mg/dL
Glucose levels ([5]; Normal chow, Week 3): 257 mg/dL
Glucose levels ([5]; Normal chow, Week 6): 211 mg/dL
